Experimental data taken from ChEMBL document CHEMBL5512645, “A novel antimicrobial peptide with broad-spectrum and exceptional stability derived from the natural peptide Brevicidine” (Eur J Med Chem, 2024).
Calls of active or inactive are those of the source. The calls are words filed in the database; no cut-off is given here.

Key:
Staphylococcus aureus [1] = test: Antibacterial activity against Staphylococcus aureus ATCC 25923 at sub-MIC measured after 4 days; type: functional, organism-based; conditions: time 4.0 day
Pseudomonas aeruginosa [2] = test: Antibacterial activity against Pseudomonas aeruginosa ATCC 27853 at sub-MIC measured after 2 days; type: functional, organism-based; conditions: time 2.0 day
Bacillus subtilis = test: Antibacterial activity against Bacillus subtilis ATCC 23857 incubated for 18 to 24 hrs by broth microdilution method; type: functional; conditions: time 18-24 hrs
Escherichia coli = test: Antibacterial activity against Escherichia coli ATCC 25922 incubated for 18 to 24 hrs by broth microdilution method; type: functional; conditions: time 18-24 hrs
Staphylococcus aureus [3] = test: Antibacterial activity against Staphylococcus aureus ATCC 25923 assessed as fold increase in MIC pretreated with Zncl2 followed by compound addition and measured after 2 hrs by broth microdilution method; type: functional
Enterococcus faecalis = test: Antibacterial activity against Enterococcus faecalis ATCC 29212 incubated for 18 to 24 hrs by broth microdilution method; type: functional; conditions: time 18-24 hrs
Pseudomonas aeruginosa [4] = test: Antibacterial activity against Pseudomonas aeruginosa ATCC 27853 incubated for 18 to 24 hrs by broth microdilution method; type: functional; conditions: time 18-24 hrs
Staphylococcus aureus [5] = test: Antibacterial activity against Staphylococcus aureus ATCC 25923 incubated for 18 to 24 hrs by broth microdilution method; type: functional; conditions: time 18-24 hrs
Acinetobacter baumannii = test: Antibacterial activity against Acinetobacter baumannii ATCC 19606 incubated for 18 to 24 hrs by broth microdilution method; type: functional; conditions: time 18-24 hrs
[6] = test system: Staphylococcus epidermidis; test: Antibacterial activity against Staphylococcus epidermidis ATCC 12228 incubated for 18 to 24 hrs by broth microdilution method; type: functional; conditions: time 18-24 hrs
Klebsiella pneumoniae = test: Antibacterial activity against Klebsiella pneumoniae ATCC 700603 incubated for 18 to 24 hrs by broth microdilution method; type: functional; conditions: time 18-24 hrs
Staphylococcus aureus [7] = test: Antibacterial activity against Staphylococcus aureus ATCC 25923 assessed as fold increase in MIC pretreated with Na-cl followed by compound addition and measured after 2 hrs by broth microdilution method; type: functional
Erythrocyte = test: Hemolytic activity in mouse red blood cell assessed as hemolysis incubated for 1 hr; type: toxicity, cell-based
Staphylococcus aureus [8] = test: Antibacterial activity against Staphylococcus aureus ATCC 25923 at sub-MIC measured after 5 days; type: functional, organism-based; conditions: time 5.0 day
Pseudomonas aeruginosa [9] = test: Antibacterial activity against Pseudomonas aeruginosa ATCC 27853 at sub-MIC measured after 3 days; type: functional, organism-based; conditions: time 3.0 day
[10] = Toxicity in male BALB/c mouse assessed as cellular infiltration in kidney at 19.45 mg/kg, ip administered as single dose by H and E staining based analysis; type: organism-based; conditions: in vivo
[11] = Toxicity in male BALB/c mouse assessed as hemorrhage in liver at 19.45 mg/kg, ip administered as single dose by H and E staining based analysis; type: organism-based; conditions: in vivo
[12] = Toxicity in male BALB/c mouse assessed as survival rate at 15 mg/kg, ip measured after 7 days relative to control; type: organism-based; conditions: in vivo, 168 h, time 7 day
[13] = Toxicity in male BALB/c mouse assessed as hemorrhage in lung at 19.45 mg/kg, ip administered as single dose by H and E staining based analysis; type: organism-based; conditions: in vivo
[14] = Toxicity in male BALB/c mouse assessed as alveolar shrinkage in lung at 19.45 mg/kg, ip administered as single dose by H and E staining based analysis; type: organism-based; conditions: in vivo
[15] = Toxicity in male BALB/c mouse assessed as cell necrosis in liver at 19.45 mg/kg, ip administered as single dose by H and E staining based analysis; type: organism-based; conditions: in vivo
[16] = Toxicity in male BALB/c mouse assessed as cellular infiltration in liver at 19.45 mg/kg, ip administered as single dose by H and E staining based analysis; type: organism-based; conditions: in vivo
[17] = Toxicity in male BALB/c mouse assessed as lethal dose administered as ip measured after 7 days; type: organism-based; conditions: in vivo, ip, 168 h, time 7 day
[18] = Toxicity in male BALB/c mouse assessed as cellular infiltration in spleen at 19.45 mg/kg, ip administered as single dose by H and E staining based analysis; type: organism-based; conditions: in vivo
[19] = Toxicity in male BALB/c mouse assessed as hemorrhage in kidney at 19.45 mg/kg, ip administered as single dose by H and E staining based analysis; type: organism-based; conditions: in vivo
[20] = Toxicity in male BALB/c mouse assessed as massive edema in kidney at 19.45 mg/kg, ip administered as single dose by H and E staining based analysis; type: organism-based; conditions: in vivo
[21] = Toxicity in male BALB/c mouse assessed as hemorrhage in spleen at 19.45 mg/kg, ip administered as single dose by H and E staining based analysis; type: organism-based; conditions: in vivo
[22] = Toxicity in male BALB/c mouse assessed as survival rate at 23.8 to 30 mg/kg, ip measured within 30 mins relative to control; type: organism-based; conditions: in vivo, 0.5 h, dose 23.8-30 mg/kg
[23] = Toxicity in male BALB/c mouse assessed as cellular infiltration in lung at 19.45 mg/kg, ip administered as single dose by H and E staining based analysis; type: organism-based; conditions: in vivo

Row | Molecule | MIC (Bacillus subtilis) | MIC (Escherichia coli) | MIC (Enterococcus faecalis) | MIC (Pseudomonas aeruginosa [4]) | MIC (Staphylococcus aureus [5]) | MIC (Acinetobacter baumannii) | MIC [6] | MIC (Klebsiella pneumoniae) | MHC (Erythrocyte) | other results
1 | CO[C@H]1/C=C/O[C@@]2(C)Oc3c(C)c(O)c4c(O)c(c(/C=N/N5CCN(C)CC5)c(O)c4c3C2=O)NC(=O)/C(C)=C\C=C\[C@H](C)[C@H](O)[C@@H](C)[C@@H](O)[C@@H](C)[C@H](OC(C)=O)[C@@H]1C |  |  |  |  |  |  |  |  |  | Activity (Staphylococcus aureus [1]): inactive; Activity (Pseudomonas aeruginosa [2]): inactive
2 | CCC(C)CCC(=O)N[C@H](CC(N)=O)C(=O)N[C@H](Cc1c[nH]c2ccccc12)C(=O)N[C@H](Cc1c[nH]c2ccccc12)C(=O)N[C@H](CCCN)C(=O)N[C@@H](CCCN)C(=O)NCC(=O)N[C@H](CCCN)C(=O)N[C@@H](Cc1c[nH]c2ccccc12)C(=O)N[C@@H]1C(=O)N[C@@H]([C@@H](C)CC)C(=O)NCC(=O)N[C@@H](CO)C(=O)O[C@@H]1C (mixture of isomers) | 16 µM | 8 µM | 128 µM | 4 µM | 32 µM | 32 µM | 32 µM | 8 µM | 64 µM | fold change (FC) (Staphylococcus aureus [3]): 4; fold change (FC) (Staphylococcus aureus [7]): 4
3 | CCC(C)CCC(=O)N[C@H](CC(N)=O)C(=O)N[C@H](Cc1ccc(O)cc1)C(=O)N[C@H](Cc1c[nH]c2ccccc12)C(=O)N[C@H](CCCN)C(=O)N[C@@H](CCCN)C(=O)NCC(=O)N[C@H](C)C(=O)N[C@@H](Cc1c[nH]c2ccccc12)C(=O)N[C@@H]1C(=O)N[C@@H]([C@@H](C)CC)C(=O)NCC(=O)N[C@@H](CO)C(=O)O[C@@H]1C (mixture of isomers) | 16 µM | 8 µM | 64 µM | 16 µM | 32 µM | 8 µM | 32 µM | 16 µM | 32 µM | 
4 | CCC(C)CCC(=O)N[C@H](CC(N)=O)C(=O)N[C@H](Cc1ccc(O)cc1)C(=O)N[C@H](Cc1c[nH]c2ccccc12)C(=O)N[C@H](CCCN)C(=O)N[C@@H](CCCN)C(=O)N[C@@H](CCCN)C(=O)N[C@H](CCCN)C(=O)N[C@@H](Cc1c[nH]c2ccccc12)C(=O)N[C@@H]1C(=O)N[C@@H]([C@@H](C)CC)C(=O)NCC(=O)N[C@@H](CO)C(=O)O[C@@H]1C (mixture of isomers) | 8 µM | 2 µM | 128 µM | 1 µM | 32 µM | 8 µM | 16 µM | 2 µM | 128 µM | 
5 | CCC(C)CCC(=O)N[C@H](CC(N)=O)C(=O)N[C@H](Cc1ccc(O)cc1)C(=O)N[C@H](Cc1c[nH]c2ccccc12)C(=O)N[C@H](CCCN)C(=O)N[C@@H](C)C(=O)NCC(=O)N[C@H](CCCN)C(=O)N[C@@H](Cc1c[nH]c2ccccc12)C(=O)N[C@@H]1C(=O)N[C@@H]([C@@H](C)CC)C(=O)NCC(=O)N[C@@H](CO)C(=O)O[C@@H]1C (mixture of isomers) | 16 µM | 8 µM | 64 µM | 4 µM | 32 µM | 8 µM | 32 µM | 8 µM | 64 µM | 
6 | CCC(C)CCC(=O)N[C@H](CCCN)C(=O)N[C@H](Cc1ccc(O)cc1)C(=O)N[C@H](Cc1c[nH]c2ccccc12)C(=O)N[C@H](CCCN)C(=O)N[C@@H](CCCN)C(=O)NCC(=O)N[C@H](CCCN)C(=O)N[C@@H](Cc1c[nH]c2ccccc12)C(=O)N[C@@H]1C(=O)N[C@@H]([C@@H](C)CC)C(=O)NCC(=O)N[C@@H](CO)C(=O)O[C@@H]1C (mixture of isomers) | 4 µM | 4 µM | 64 µM | 1 µM | 32 µM | 8 µM | 16 µM | 2 µM | 128 µM | 
7 | CCC(C)CCC(=O)N[C@H](CC(N)=O)C(=O)N[C@H](Cc1ccc(O)cc1)C(=O)N[C@H](Cc1c[nH]c2ccccc12)C(=O)N[C@H](C)C(=O)N[C@@H](CCCN)C(=O)NCC(=O)N[C@H](CCCN)C(=O)N[C@@H](Cc1c[nH]c2ccccc12)C(=O)N[C@@H]1C(=O)N[C@@H]([C@@H](C)CC)C(=O)NCC(=O)N[C@@H](CO)C(=O)O[C@@H]1C (mixture of isomers) | 16 µM | 8 µM | 32 µM | 8 µM | 32 µM | 8 µM | 32 µM | 8 µM | 64 µM | 
8 | GENTAMICIN |  |  |  |  |  |  |  |  |  | Activity (Staphylococcus aureus [8]): inactive; Activity (Pseudomonas aeruginosa [9]): inactive
9 | POLYMYXIN B |  |  |  |  |  |  |  |  | 128 µM | Activity [10]: Toxic; Activity [11]: Toxic; Survival [12]: 100%; Activity [13]: Toxic; Activity [14]: Toxic; Activity [15]: Toxic; Activity [16]: Toxic; LD50 [17]: 19.45 mg/kg; Activity [18]: Toxic; Activity [19]: Toxic; Activity [20]: Toxic; Activity [21]: Toxic; Survival [22]: 0%; Activity [23]: Toxic
